These results are taken from publication PMC9516332 (Frontiers in Oncology, 2022).

Common to all, as to test: Kinase panel profiling at 1 µmol/L (MSA or IMAP), percentage inhibition
Type in all cases: biochemical

The target in test [1] is T1, panel of 255 wild-type kinases (Homo sapiens, UniProt O15530).
T1 sequence (O15530 1-556): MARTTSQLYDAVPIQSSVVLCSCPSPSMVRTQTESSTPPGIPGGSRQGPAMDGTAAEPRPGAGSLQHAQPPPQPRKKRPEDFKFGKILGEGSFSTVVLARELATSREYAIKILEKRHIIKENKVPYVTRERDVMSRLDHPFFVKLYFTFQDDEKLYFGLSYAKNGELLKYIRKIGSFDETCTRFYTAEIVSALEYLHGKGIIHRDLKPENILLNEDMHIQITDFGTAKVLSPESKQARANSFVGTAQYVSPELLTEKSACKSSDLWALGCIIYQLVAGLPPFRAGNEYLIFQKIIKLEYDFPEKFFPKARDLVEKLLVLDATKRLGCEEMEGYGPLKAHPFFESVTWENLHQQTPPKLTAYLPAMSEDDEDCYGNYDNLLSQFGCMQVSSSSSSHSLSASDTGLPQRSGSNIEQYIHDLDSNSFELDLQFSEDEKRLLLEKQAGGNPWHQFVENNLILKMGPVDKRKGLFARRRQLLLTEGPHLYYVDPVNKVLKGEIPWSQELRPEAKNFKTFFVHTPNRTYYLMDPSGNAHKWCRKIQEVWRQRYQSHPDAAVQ
The settings on record: kinase PDK1; 1 µmol/L single concentration; read-out: %-inhibition at 1 µmol/L, PDK1.

In test [2] the target is panel of 255 wild-type kinases (Homo sapiens, UniProt O96013). As to conditions: PAK4; 1 µmol/L single concentration; read-out: %-inhibition, PAK4.
Test [3] deals with panel of 255 wild-type kinases (Homo sapiens, UniProt P42685). The settings on record: kinase FRK; 1 µmol/L single concentration; read-out: %-inhibition at 1 µmol/L, FRK.
Test [4] addresses panel of 255 wild-type kinases (Homo sapiens, UniProt P49137). As to conditions: kinase MAPKAPK2; 1 µmol/L single concentration; read-out: %-inhibition at 1 µmol/L, MAPKAPK2.
The target in test [5] is panel of 255 wild-type kinases (Homo sapiens, UniProt P49674). The settings on record: kinase CK1ε; 1 µmol/L single concentration; read-out: %-inhibition at 1 µmol/L, CK1ε.
Test [6] concerns the target panel of 255 wild-type kinases (Homo sapiens, UniProt Q08345). As to conditions: kinase DDR1; 1 µmol/L single concentration; read-out: %-inhibition at 1 µmol/L, DDR1.
The target of test [7] is panel of 255 wild-type kinases (Homo sapiens, UniProt Q13464). As to conditions: kinase ROCK1; 1 µmol/L single concentration; read-out: %-inhibition at 1 µmol/L, ROCK1.
The target in test [8] is panel of 255 wild-type kinases (Homo sapiens, UniProt Q15375). As to conditions: kinase EPHA7; 1 µmol/L single concentration; read-out: %-inhibition at 1 µmol/L, EPHA7.
In test [9] the target is panel of 255 wild-type kinases (Homo sapiens, UniProt Q9HC98). As to conditions: NEK6; 1 µmol/L single concentration; read-out: %-inhibition, NEK6.
Test [10] has as its target T2, panel of 255 wild-type kinases (Homo sapiens, UniProt Q9NWZ3).
T2 sequence (Q9NWZ3 1-460): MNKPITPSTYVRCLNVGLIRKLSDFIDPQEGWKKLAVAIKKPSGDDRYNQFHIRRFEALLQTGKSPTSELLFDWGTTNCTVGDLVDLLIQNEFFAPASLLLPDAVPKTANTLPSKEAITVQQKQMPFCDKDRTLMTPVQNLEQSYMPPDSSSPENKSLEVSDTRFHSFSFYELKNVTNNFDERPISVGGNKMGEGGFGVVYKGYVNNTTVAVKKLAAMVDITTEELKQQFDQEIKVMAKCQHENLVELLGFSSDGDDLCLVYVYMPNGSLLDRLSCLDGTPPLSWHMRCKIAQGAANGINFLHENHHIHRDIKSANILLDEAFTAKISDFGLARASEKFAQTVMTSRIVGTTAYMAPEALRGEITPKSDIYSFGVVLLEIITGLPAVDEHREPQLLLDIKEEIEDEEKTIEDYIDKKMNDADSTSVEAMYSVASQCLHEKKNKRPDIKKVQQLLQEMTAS
The settings on record: kinase IRAK4; 1 µmol/L single concentration; read-out: %-inhibition at 1 µmol/L, IRAK4.

Test [11] concerns the target panel of 255 wild-type kinases (Homo sapiens, UniProt Q9P0L2). The settings on record: MARK1; 1 µmol/L single concentration; read-out: %-inhibition, MARK1.
Test [12] has as its target panel of 255 wild-type kinases (Homo sapiens, UniProt Q9P289). As to conditions: MST4; 1 µmol/L single concentration; read-out: %-inhibition, MST4.
Test [13] has as its target T3, panel of 255 wild-type kinases (Homo sapiens, UniProt Q9UHD2).
T3 sequence (Q9UHD2 1-729): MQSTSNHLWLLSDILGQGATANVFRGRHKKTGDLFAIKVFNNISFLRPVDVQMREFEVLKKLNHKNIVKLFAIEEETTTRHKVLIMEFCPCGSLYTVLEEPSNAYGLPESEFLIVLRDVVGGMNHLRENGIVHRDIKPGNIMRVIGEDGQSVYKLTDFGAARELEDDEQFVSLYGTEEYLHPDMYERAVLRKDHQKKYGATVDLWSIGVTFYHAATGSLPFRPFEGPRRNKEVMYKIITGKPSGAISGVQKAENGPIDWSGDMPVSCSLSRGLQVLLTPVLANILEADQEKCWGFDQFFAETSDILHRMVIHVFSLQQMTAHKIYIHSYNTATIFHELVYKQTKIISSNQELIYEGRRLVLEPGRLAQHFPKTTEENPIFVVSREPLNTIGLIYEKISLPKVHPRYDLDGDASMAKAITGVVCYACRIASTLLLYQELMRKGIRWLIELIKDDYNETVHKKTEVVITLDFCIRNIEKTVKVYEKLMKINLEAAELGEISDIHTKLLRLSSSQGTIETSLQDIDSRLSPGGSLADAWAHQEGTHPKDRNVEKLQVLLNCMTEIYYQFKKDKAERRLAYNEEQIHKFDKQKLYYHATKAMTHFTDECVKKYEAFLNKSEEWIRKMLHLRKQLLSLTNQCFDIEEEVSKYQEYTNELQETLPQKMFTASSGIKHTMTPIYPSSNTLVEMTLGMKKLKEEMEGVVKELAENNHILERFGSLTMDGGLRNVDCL
The settings on record: kinase TBK1; 1 µmol/L single concentration; read-out: %-inhibition at 1 µmol/L, TBK1.

Take `FC(F)(F)c1ccc(CNc2ccc(Cc3c[nH]c4ncc(Cl)cc34)cn2)cn1` [pexidartinib]: the inhibition at 1 µM is -4.67% in test [1]; 11% in test [2]; 5.44% in test [3]; -32% in test [4]; 5.38% in [5]; 84% in [6]. Further, the inhibition at 1 µM was 9% in [7]; 6.38% in test [8]; -0.796% in test [9]; 37% in test [10]; 3% in test [11]; 7% in test [12]. In addition, the inhibition at 1 µM in test [13] was found to be 6%.
As to `CO[C@]1(C(=O)N[C@@H](C)c2ccc(-n3cc(F)cn3)nc2)CC[C@H](c2nc(C)cc(Nc3cc(C)[nH]n3)n2)CC1` [pralsetinib], the inhibition at 1 µM in [1] was 9%; in test [2], 66%; in test [3], 82%; in test [4], -31%; in [5], -3%; in [6], 98%. The inhibition at 1 µM in test [7] is 3.43%; in [8], 68%; in [9], -0.0459%; in test [10] it was -0.786%; in test [11], -13%; in test [12], -1.47%. For the same molecule, the inhibition at 1 µM in test [13] is -0.586%.
For the molecule `CCn1c(=O)c(-c2cc(NC(=O)Nc3ccccc3)c(F)cc2Br)cc2cnc(NC)cc21` [ripretinib], the inhibition at 1 µM in test [1] was -7%; in test [2] it was 0.34%; in test [3] it was 87%; in test [4], -24%; in test [5], 1.8%; in test [6], 90%. The inhibition at 1 µM in [7] is -2.14%; in [8], 54%; in test [9], -4%; in test [10], -3.46%; in test [11], -0.571%; in [12], -0.174%. Besides, the inhibition at 1 µM in [13] was 0.403%.
As for `COc1ccc(CN2C3CC2CN(c2ccc(-c4cc(OCC(C)(C)O)cn5ncc(C#N)c45)cn2)C3)cn1` [selpercatinib], the inhibition at 1 µM in test [1] is 7%; in test [2] it was 8%; in test [3], 13%; in test [4], -5.47%; in test [5], 2.36%; in [6], 89%. Moreover, the inhibition at 1 µM in test [7] worked out at 3.51%; in test [8] it was 96%; in test [9], 0.41%; in [10], 1.9%; in [11] it was 22%; in test [12], 2.38%. The inhibition at 1 µM in test [13] stood at 12%.
`Cn1cnc2c(F)c(Nc3ccc(Br)cc3Cl)c(C(=O)NOCCO)cc21` [selumetinib]: the inhibition at 1 µM in test [1] was 2.11%; in test [2], 4.6%; in test [3], -3%; in test [4], -5%; in test [5] it was -0.361%; in test [6] it was 4.73%. For the same molecule, the inhibition at 1 µM in test [7] was -1.15%; in test [8], -1.78%; in [9] it was -1.5%; in test [10], -1.34%; in test [11], -16%; in [12] it was -0.349%. Besides, in test [13], the inhibition at 1 µM was -1.18%.
Turning to `Cc1cc(Nc2ncnc3ccc(NC4=NC(C)(C)CO4)cc23)ccc1Oc1ccn2ncnc2c1` [tucatinib], the inhibition at 1 µM in test [1] is 3%; in [2] it was 5%; in test [3], -2.17%; in test [4], -28%; in [5] it was 0.505%; in [6], 9%. Further, the inhibition at 1 µM in test [7] is -0.767%; in test [8] it was 1.07%; in test [9] it was 0.486%; in test [10], 0.835%; in test [11] it was -7%; in test [12], 3%. The inhibition at 1 µM in test [13] is -3%.
Regarding `C=CC(=O)N1CCC([C@@H]2CCNc3c(C(N)=O)c(-c4ccc(Oc5ccccc5)cc4)nn32)CC1` [zanubrutinib], the inhibition at 1 µM was 0.547% in test [1]; -11% in test [2]; 82% in [3]; -9% in test [4]; 4.32% in test [5]; 3% in test [6]. For the same molecule, the inhibition at 1 µM in [7] was -1.57%; in test [8] it was 0.758%; in test [9] it was -1%; in test [10], 1%; in test [11], -6%; in test [12], -1%. Moreover, the inhibition at 1 µM in [13] worked out at 0.115%.
